In data set [1] the test system is D. immitis transglutaminase. In words: Effect of ions, inhibitors and other reagents on activity of transglutaminase purified from adult D. immitis worms (microtiter plate assay). The format is biochemical.
A further data set deals with D. immitis L3 larvae. In words: D. immitis L3 larval molting in in vitro larval culture. The format is cell-based.
Data set [2] has as its system PHIS-PDiTG468. The format is biochemical, D. immitis.
The target in data set [3] is bovine protein disulfide isomerase (PDI) (Bos taurus, UniProt P05307).
The target of the next data set is T1, PDI from bovine liver (Bos taurus, UniProt P05307).
T1 sequence (P05307 21-510): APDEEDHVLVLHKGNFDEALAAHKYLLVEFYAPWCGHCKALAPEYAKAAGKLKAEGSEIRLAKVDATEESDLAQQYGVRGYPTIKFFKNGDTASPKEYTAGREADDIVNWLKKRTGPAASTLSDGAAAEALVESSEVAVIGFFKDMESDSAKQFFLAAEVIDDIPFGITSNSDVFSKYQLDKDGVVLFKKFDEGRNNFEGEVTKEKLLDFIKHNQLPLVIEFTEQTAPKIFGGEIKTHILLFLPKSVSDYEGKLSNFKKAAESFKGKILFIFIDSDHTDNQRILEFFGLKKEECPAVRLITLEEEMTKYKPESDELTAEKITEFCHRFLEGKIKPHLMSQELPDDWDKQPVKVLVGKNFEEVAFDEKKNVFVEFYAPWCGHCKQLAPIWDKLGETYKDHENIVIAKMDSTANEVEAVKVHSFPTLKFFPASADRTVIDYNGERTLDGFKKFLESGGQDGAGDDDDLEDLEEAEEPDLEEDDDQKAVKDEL
In words: Effect of transglutaminase inhibitors on PDI activity of purified bovine liver PDI (scrambled RNase reactivation). The format is biochemical. The following applies: inhibitor 1 mM.

Data set [4] concerns PHIS-PDiTG468. It is filed as biochemical, D. immitis. The source holds these as a separate data set.
Another data set concerns dimethylcasein. It is filed as biochemical.
[5] abbreviates: reagent 1 mM, with 10 mM CaCl2 and 10 mM dithiothreitol.
Setting [6] is: reagent 10 mM, with 10 mM CaCl2 and 10 mM dithiothreitol.
Setting [7] is: 50 μM, inhibitor present during first 24 hr of L3 culture.
The mark [8] stands for this setting: 100 μM, inhibitor present during first 24 hr of L3 culture.

Where “and” joins values, the source holds several entries; their conditions need not be identical. Identical values can stand only once. Entries after “also recorded” stand apart in the source; their conditions may differ. Like-named read-outs stand apart in the source and are kept apart here.

For the molecule Nα-CBZ-Gln-Gly, in data set [1], the “Effect on activity of transglutaminase purified from adult D. immitis worms (in words)” value (from here on “Effect on activity”) is given as “affects the enzyme activity only slightly” and the “Transglutaminase activity (% of control)” value was 92 % of control.
Take `NC(=O)CI` [Iodoacetamide]: the “Inhibition of molting of L3 to L4 (in words)” value (“Inhibition of molting of L3” below) with D. immitis L3 larvae is on record as “able to inhibit”. Besides, the “Effect on transglutaminase activity of PHIS-PDiTG468 (in words)” value (“Effect … of PHIS-PDiTG468 (in words)” for short) with PHIS-PDiTG468 [2] is given as “inhibited the transglutaminase activity”. Besides, the “Effect on activity” value in data set [1] is recorded as “decreased the activity drastically”.
On to `Nc1nc2c(ncn2[C@@H]2O[C@H](COP(=O)(O)OP(=O)(O)OP(=O)(O)O)[C@@H](O)[C@H]2O)c(=O)[nH]1` [GTP], for which the “Effect on activity” value in data set [1] is on record as “not affected adversely”. Further, the “Transglutaminase activity (% of control)” value was 100 % of control in data set [1] (reagent 0.1 mM, with 10 mM CaCl2 and 10 mM dithiothreitol); 95 % of control in data set [1] (setting [5]).
For the molecule `O=C(O)CN(CCN(CC(=O)O)CC(=O)O)CC(=O)O` [EDTA], in data set [3], the “Effect on transglutaminase activity of bovine PDI (in words)” value is recorded as “inhibited”. Further, the “Effect … of PHIS-PDiTG468 (in words)” value in the data set with PHIS-PDiTG468 [2] was “inhibited”.
Take Tris-HCl: in data set [1], the “Effect on activity” value was “reversibly inhibited the enzyme”; the “Transglutaminase activity (% of control)” value is 66 % of control and 40 % of control.
`NCCCCN` [Putrescine]: in the data set on PHIS-PDiTG468 [2], the “Activity (mU ± SEM)” value was 36.5 ± 3.9 mU and 35.3 ± 4.3 mU; the “Effect … of PHIS-PDiTG468 (in words)” value is “inhibited the transglutaminase activity”. The “Effect on activity” value in data set [1] was “inhibited competitively”. In data set [1] (setting [5]), the “Transglutaminase activity (% of control)” value is reported as 14 % of control.
Take `O[C@H](CS)[C@H](O)CS` (racemic) [Dithiothreitol]: in the data set on PHIS-PDiTG468 [2], the “Effect … of PHIS-PDiTG468 (in words)” value is on record as “more active in the absence of DTT”. In data set [1], the “Effect on activity” value is on record as “increased the enzyme activity substantially”.
`N.N.O=S(=O)(O)O` [(NH4)2SO4]: the “Transglutaminase activity (% of control)” value in data set [1] (setting [6]) was 0 % of control.
With `CN(C)c1cccc2c(S(=O)(=O)NCCCCCN)cccc12` [Monodansyl cadaverine], the “PDI Activity (Mean ± SD) of PDI” value at PDI from bovine liver is listed as 24.0 ± 2.0 ΔA min^−1. Besides, the Percent molted in the data set with D. immitis L3 larvae (25 μM, L3 cultured 6 days) came out at 75%; with D. immitis L3 larvae (50 μM, L3 cultured 6 days) it was 63%; with D. immitis L3 larvae (setting [7]), 64%; with D. immitis L3 larvae (75 μM, L3 cultured 6 days), 28%; in the data set with D. immitis L3 larvae (85 μM, L3 cultured 6 days), 2.5%; in the data set with D. immitis L3 larvae (100 μM, L3 cultured 6 days), 0%. Further, the Percent molted with D. immitis L3 larvae (setting [8]) amounted to 41%. Besides, in the data set on D. immitis L3 larvae (100 μM final concentration, listed as MDC), the “Inhibition of molting of L3” value is recorded as “completely inhibited the molting process; also recorded: completely inhibits”. The “Molting of larvae cultured in the presence of MDC (in words)” value in the data set on D. immitis L3 larvae (day 6, electron microscopy study) was “failed to molt even on day 6”. The “Activity (mU ± SEM)” value in the data set with PHIS-PDiTG468 [2] is 48.3 ± 4.0 mU and 44.6 ± 5.1 mU. For the same molecule, the “Effect … of PHIS-PDiTG468 (in words)” value in the data set on PHIS-PDiTG468 [2] was “inhibited the transglutaminase activity”. For the same molecule, the “Effect on activity” value in data set [1] is “inhibited competitively”. The “Transglutaminase activity (% of control)” value in data set [1] (setting [5]) is reported as 9 % of control. Also, the “PDI Activity (Mean ± SD) of PHIS-PDiTG468” value in the data set with PHIS-PDiTG468 [4] was 41.2 ± 2.9 ΔA min^−1.
`OCCS` [mercaptoethanol]: the “Effect on activity” value in data set [1] was “increased the enzyme activity substantially”.
Take `O=C(O)CN(CCOCCOCCN(CC(=O)O)CC(=O)O)CC(=O)O` [EGTA]: in the data set on PHIS-PDiTG468 [2], the “Effect … of PHIS-PDiTG468 (in words)” value is given as “inhibited”. For the same molecule, the “Effect on activity” value in data set [1] is given as “completely blocked the activity”. For the same molecule, the “Transglutaminase activity (% of control)” value in data set [1] (setting [6]) is on record as 0 % of control.
`[Cl-].[K+]` [KCl]: the “Transglutaminase activity (% of control)” value in data set [1] (reagent 500 mM, with 10 mM CaCl2 and 10 mM dithiothreitol) was 54 % of control.
Regarding `NCCSSCCN` [Cystamine], the “PDI Activity (Mean ± SD) of PDI” value at PDI from bovine liver was 26.4 ± 2.9 ΔA min^−1. Also, the Percent molted is reported as 61% with D. immitis L3 larvae (25 μM, L3 cultured 6 days); 62% with D. immitis L3 larvae (50 μM, L3 cultured 6 days); 68% in the data set with D. immitis L3 larvae (setting [7]); 17% with D. immitis L3 larvae (75 μM, L3 cultured 6 days); 1% in the data set on D. immitis L3 larvae (85 μM, L3 cultured 6 days); 0% with D. immitis L3 larvae (100 μM, L3 cultured 6 days). In the data set with D. immitis L3 larvae (setting [8]), this molecule registered a Percent molted of 13%. Besides, the “Inhibition of molting of L3” value in the data set with D. immitis L3 larvae (100 μM final concentration) is given as “completely inhibited the molting process”. In the data set with D. immitis L3 larvae (added on day 2 during the culture), the “Inhibition of larval molting (in words)” value was “very effective inhibitor of larval molting”. Further, in the data set with PHIS-PDiTG468 [2], the “Activity (mU ± SEM)” value was 46.4 ± 4.6 mU and 28.3 ± 2.2 mU. Further, the “Effect … of PHIS-PDiTG468 (in words)” value in the data set on PHIS-PDiTG468 [2] is “inhibited the transglutaminase activity”. Also, in data set [1], the “Effect on activity” value was “inhibited competitively”. The “Transglutaminase activity (% of control)” value in data set [1] (setting [5]) was 52 % of control. Further, in the data set with PHIS-PDiTG468 [4], the “PDI Activity (Mean ± SD) of PHIS-PDiTG468” value is listed as 33.3 ± 1.8 ΔA min^−1.

B1: PDI: bovine protein disulfide isomerase, purified from bovine liver, available from Sigma (protein, UniProt P05307 21-510, looked up)
Protein disulfide-isomerase: T1 sequence (P05307 21-510)
On to B1, for which the “Temperature of optimum transglutaminase activity” value with dimethylcasein amounted to 55 °C. Also, the “Activity (mU ± SEM)” value in the data set with dimethylcasein (37 °C) was 30.3 ± 1.0 mU; in the data set with dimethylcasein (45 °C), 47.2 ± 2.5 mU; with dimethylcasein (55 °C) it was 92.1 ± 4.3 mU; in the data set on dimethylcasein (65 °C) it was 67.0 ± 2.9 mU.

The record behind these values is patent US6383774B1, “Parasitic nematode transglutaminase, nucleic acid molecules and uses thereof” (Heska Corporation, priority 1996, dated 2002).
